Experimental data reported in PubChem BioAssay AID330 (DTP/NCI, 2004).
“And” between values parts separate entries of the source, which are not always exact repeats. Identical values can stand only once. Inconclusive results and toxic doses are left out. How the source made its calls: active means survival T/C of 150% or more; inactive means T/C below 125% in these data.

Test system: P388 leukemia ip, CD2F1 mice, survival T/C
Test: NCI In Vivo Anticancer Drug Screen. Data for tumor model P388 Leukemia (intraperitoneal) in CD2F1 (CDF1) mice
Conditions: endpoint: median survival time, higher = longer survival
Method in brief: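 Mice carrying the transplanted tumor received test compound or vehicle. Survival was recorded in each group, and the value is the treated-group measurement divided by that of the vehicle-treated control group.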

[1] = dose: 50.0 mg/kg/injection, schedule: Q01DX009 (ip), vehicle: Klucel (hydroxypropylcellulose) (HPC)
[2] = dose: 100.0 mg/kg/injection, schedule: Q01DX009 (ip), vehicle: Klucel (hydroxypropylcellulose) (HPC)
[3] = dose: 200.0 mg/kg/injection, schedule: Q01DX009 (ip), vehicle: Klucel (hydroxypropylcellulose) (HPC)
[4] = dose: 25.0 mg/kg/injection, schedule: Q01DX005 (ip), vehicle: Klucel (hydroxypropylcellulose) (HPC)
[5] = dose: 50.0 mg/kg/injection, schedule: Q01DX005 (ip), vehicle: Klucel (hydroxypropylcellulose) (HPC)
[6] = dose: 100.0 mg/kg/injection, schedule: Q01DX005 (ip), vehicle: Klucel (hydroxypropylcellulose) (HPC)
[7] = dose: 200.0 mg/kg/injection, schedule: Q01DX005 (ip), vehicle: Klucel (hydroxypropylcellulose) (HPC)
[8] = dose: 60.0 mg/kg/injection, schedule: Q01DX005 (ip), vehicle: saline with Tween-80
[9] = dose: 120.0 mg/kg/injection, schedule: Q01DX005 (ip), vehicle: saline with Tween-80
[10] = dose: 240.0 mg/kg/injection, schedule: Q01DX005 (ip), vehicle: saline with Tween-80
[11] = dose: 100.0 mg/kg/injection, schedule: Q01DX009 (ip), vehicle: saline with Tween-80
[12] = dose: 200.0 mg/kg/injection, schedule: Q01DX009 (ip), vehicle: saline with Tween-80
[13] = dose: 400.0 mg/kg/injection, schedule: Q01DX009 (ip), vehicle: saline with Tween-80
[14] = dose: 50.0 mg/kg/injection, schedule: Q01DX009 (ip), vehicle: saline
[15] = dose: 100.0 mg/kg/injection, schedule: Q01DX009 (ip), vehicle: saline
[16] = dose: 200.0 mg/kg/injection, schedule: Q01DX009 (ip), vehicle: saline
[17] = dose: 60.0 mg/kg/injection, schedule: Q01DX005 (ip), vehicle: Klucel (hydroxypropylcellulose) (HPC)
[18] = dose: 50.0 mg/kg/injection, schedule: Q01DX005 (ip), vehicle: saline with Tween-80

Measured: T/C

CCOP(O)(=S)OCC.[Nd]
inactive: dose: 100.0 mg/kg/injection, schedule: Q01DX001 (ip), vehicle: Klucel (hydroxypropylcellulose) (HPC) 89 % of control | dose: 200.0 mg/kg/injection, schedule: Q01DX001 (ip), vehicle: Klucel (hydroxypropylcellulose) (HPC) 91 % of control | dose: 400.0 mg/kg/injection, schedule: Q01DX001 (ip), vehicle: Klucel (hydroxypropylcellulose) (HPC) 99 % of control

CCCCCCCCC(=O)OCCN(CCOC(=O)CCCCCCCC)C(=O)COC(=O)CCCCCCCC
inactive: [1] 102 % of control | [2] 113 % of control | [3] 93 % of control

CC(=O)C(C[n+]1ccccc1)c1ccccc1 (centres undefined)
inactive: dose: 15.0 mg/kg/injection, schedule: Q01DX005 (ip), vehicle: saline 98 % of control | dose: 30.0 mg/kg/injection, schedule: Q01DX005 (ip), vehicle: saline 98 % of control | dose: 60.0 mg/kg/injection, schedule: Q01DX005 (ip), vehicle: saline 102 % of control and 107 % of control

CCCCNC(=O)CC(=O)NCCCC
inactive: [4] 99 % of control | [5] 100 % of control | [6] 99 % of control | [7] 100 % of control

Clc1c(-c2ccccc2)oc2nc3ccccc3nc12
inactive: [8] 116 % of control | [9] 110 % of control | [10] 111 % of control

CC(=Nc1ccccc1)c1ccc2ccccc2c1
inactive: [11] 95 % of control | [12] 90 % of control | [13] 90 % of control

CCN(CC)CCNC(=O)Cc1cccc2c(=O)cc(-c3ccccc3)oc12
inactive: [14] 108 % of control | [15] 99 % of control | [16] 97 % of control

NC(CSCSCc1ccccc1)C(=O)O (centres undefined)
inactive: dose: 25.0 mg/kg/injection, schedule: Q01DX009 (ip), vehicle: other 102 % of control | dose: 50.0 mg/kg/injection, schedule: Q01DX009 (ip), vehicle: other 110 % of control | dose: 100.0 mg/kg/injection, schedule: Q01DX009 (ip), vehicle: other 102 % of control | dose: 200.0 mg/kg/injection, schedule: Q01DX009 (ip), vehicle: other 106 % of control

CCCCCCCCCCCc1n(Cc2ccccc2)c2ccccc2[n+]1C
inactive: dose: 0.25 mg/kg/injection, schedule: Q01DX009 (ip), vehicle: saline sonified 104 % of control | dose: 0.5 mg/kg/injection, schedule: Q01DX009 (ip), vehicle: saline sonified 109 % of control

N#CC(Cc1ccccc1)(c1ccccc1)c1ccccc1
inactive: [1] 101 % of control | [2] 96 % of control | [3] 93 % of control | dose: 400.0 mg/kg/injection, schedule: Q01DX009 (ip), vehicle: Klucel (hydroxypropylcellulose) (HPC) 93 % of control

Cc1ccccc1C(C)(O)c1cnc(C)n1Cc1ccccc1 (centres undefined)
inactive: [17] 111 % of control | dose: 120.0 mg/kg/injection, schedule: Q01DX005 (ip), vehicle: Klucel (hydroxypropylcellulose) (HPC) 96 % of control | dose: 240.0 mg/kg/injection, schedule: Q01DX005 (ip), vehicle: Klucel (hydroxypropylcellulose) (HPC) 91 % of control

C=CCOC1C=C(C)C(=O)O1 (centres undefined)
inactive: dose: 41.5 mg/kg/injection, schedule: Q01DX005 (ip), vehicle: saline with Tween-80 100 % of control | dose: 83.0 mg/kg/injection, schedule: Q01DX005 (ip), vehicle: saline with Tween-80 103 % of control | dose: 166.0 mg/kg/injection, schedule: Q01DX005 (ip), vehicle: saline with Tween-80 109 % of control

O=C(/C(=C\c1ccc(F)cc1)S(=O)(=O)c1ccc(F)cc1)c1ccccc1
inactive: [18] 110 % of control | dose: 100.0 mg/kg/injection, schedule: Q01DX005 (ip), vehicle: saline with Tween-80 102 % of control | dose: 200.0 mg/kg/injection, schedule: Q01DX005 (ip), vehicle: saline with Tween-80 103 % of control

Cc1ccc(SC(=O)c2cccnc2Oc2ccccc2)cc1
inactive: [5] 90 % of control | [6] 99 % of control | [7] 96 % of control

O=[As](O)(O)c1ccc(Nc2nc(Cl)nc(Cl)n2)cc1
inactive: dose: 12.5 mg/kg/injection, schedule: Q01DX009 (ip), vehicle: Klucel (hydroxypropylcellulose) (HPC) 96 % of control | dose: 25.0 mg/kg/injection, schedule: Q01DX009 (ip), vehicle: Klucel (hydroxypropylcellulose) (HPC) 104 % of control

CN=NNCc1ccccc1
inactive: dose: 1.56 mg/kg/injection, schedule: Q01DX005 (ip), vehicle: saline 100 % of control and 102 % of control | dose: 3.12 mg/kg/injection, schedule: Q01DX005 (ip), vehicle: saline 98 % of control and 103 % of control | dose: 6.25 mg/kg/injection, schedule: Q01DX005 (ip), vehicle: saline 102 % of control and 105 % of control | dose: 12.5 mg/kg/injection, schedule: Q01DX005 (ip), vehicle: saline 93 % of control

CN1CCC2=C(C1)C(c1ccccc1)c1ccccc12 (centres undefined)
inactive: dose: 33.0 mg/kg/injection, schedule: Q01DX009 (ip), vehicle: saline 107 % of control | [14] 104 % of control | dose: 75.0 mg/kg/injection, schedule: Q01DX009 (ip), vehicle: saline 107 % of control

Cc1cnc2c(c1)CCCC2C(N)=S (centres undefined)
inactive: [14] 99 % of control | [15] 95 % of control | [16] 107 % of control

CCCCCC1(CCBr)C(=O)NC(=O)NC1=O
inactive: [5] 100 % of control | [6] 102 % of control | [7] 108 % of control

Nc1nc(Nc2ccccc2)n[nH]1
inactive: [1] 102 % of control | [2] 102 % of control | [3] 94 % of control

C[N+](C)=NC1CCC(C(C)(C)C)CC1 (centres undefined)
inactive: dose: 12.5 mg/kg/injection, schedule: Q01DX005 (ip), vehicle: saline with Tween-80 99 % of control | dose: 25.0 mg/kg/injection, schedule: Q01DX005 (ip), vehicle: saline with Tween-80 99 % of control | [18] 100 % of control

COC(=O)[CH2][Ge]([c]1ccccc1)[c]1ccccc1.COC(=O)[CH2][Ge]([c]1ccccc1)[c]1ccccc1
inactive: dose: 15.0 mg/kg/injection, schedule: Q01DX005 (ip), vehicle: Klucel (hydroxypropylcellulose) (HPC) 97 % of control | dose: 30.0 mg/kg/injection, schedule: Q01DX005 (ip), vehicle: Klucel (hydroxypropylcellulose) (HPC) 89 % of control | [17] 89 % of control

CC(=O)Nc1cc2cccnc2sc1=O
inactive: [4] 98 % of control | [5] 91 % of control | [6] 89 % of control and 94 % of control | [7] 96 % of control

COc1cc(CC2C(CO)OC(=O)C2C(O)c2ccc3c(c2)OCO3)cc(OC)c1OC (centres undefined)
inactive: dose: 5.0 mg/kg/injection, schedule: Q04DX002 (ip), vehicle: saline with Tween-80 104 % of control | dose: 10.0 mg/kg/injection, schedule: Q04DX002 (ip), vehicle: saline with Tween-80 104 % of control | dose: 20.0 mg/kg/injection, schedule: Q04DX002 (ip), vehicle: saline with Tween-80 102 % of control

COC(=O)/C=C/N(Cc1ccccc1)Cc1ccccc1
inactive: [11] 100 % of control | dose: 100.0 mg/kg/injection, schedule: Q04DX003 (ip), vehicle: saline with Tween-80 95 % of control | [12] 100 % of control | dose: 200.0 mg/kg/injection, schedule: Q04DX003 (ip), vehicle: saline with Tween-80 95 % of control | [13] 100 % of control | dose: 400.0 mg/kg/injection, schedule: Q04DX003 (ip), vehicle: saline with Tween-80 95 % of control

O=[N+]([O-])O.[Mn].c1ccc(/C2=c3\cc/c([n-]3)=C(\c3ccccc3)c3ccc([n-]3)/C(c3ccccc3)=c3/cc/c([n-]3)=C(\c3ccccc3)c3ccc2[n-]3)cc1
inactive: dose: 25.0 mg/kg/injection, schedule: Q04DX002 (ip), vehicle: saline with Tween-80 100 % of control | dose: 50.0 mg/kg/injection, schedule: Q04DX002 (ip), vehicle: saline with Tween-80 94 % of control | dose: 100.0 mg/kg/injection, schedule: Q04DX002 (ip), vehicle: Klucel (hydroxypropylcellulose) (HPC) 108 % of control | dose: 100.0 mg/kg/injection, schedule: Q04DX002 (ip), vehicle: saline with Tween-80 94 % of control | dose: 400.0 mg/kg/injection, schedule: Q04DX002 (ip), vehicle: Klucel (hydroxypropylcellulose) (HPC) 108 % of control

CNC(=O)NNC(=O)c1ccccc1Cl
inactive: [8] 106 % of control | [9] 101 % of control | [10] 103 % of control
